Results taken from ChEMBL document CHEMBL1146054, “Structural modifications of the cannabinoid side chain towards C3-aryl and 1',1'-cycloalkyl-1'-cyano cannabinoids” (Bioorg Med Chem Lett, 2006).

Key:
[1] = Selectivity for rat CB1 receptor over mouse CB2 receptor
[2] = biological target: Cannabinoid receptor 1 (Rattus norvegicus, UniProt P20272); test: Displacement of [3H]CP-55940 from rat brain CB1 receptor
[3] = biological target: Cannabinoid receptor 2 (Mus musculus, UniProt P47936); test: Displacement of [3H]CP-55940 from mouse spleen CB2 receptor; format: tissue-based
Cannabinoid receptor 2, sequence (P47936 whole entry): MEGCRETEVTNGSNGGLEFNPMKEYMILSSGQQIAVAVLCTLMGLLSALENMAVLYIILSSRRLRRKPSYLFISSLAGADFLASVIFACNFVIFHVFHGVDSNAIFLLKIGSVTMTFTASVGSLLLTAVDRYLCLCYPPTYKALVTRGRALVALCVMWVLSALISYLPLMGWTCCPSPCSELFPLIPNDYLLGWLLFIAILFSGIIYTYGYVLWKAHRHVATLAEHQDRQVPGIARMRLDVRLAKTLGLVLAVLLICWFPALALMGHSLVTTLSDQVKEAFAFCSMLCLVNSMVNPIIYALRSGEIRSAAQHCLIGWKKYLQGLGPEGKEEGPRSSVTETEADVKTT

Cannabinoid receptor 1, sequence (P20272 whole entry): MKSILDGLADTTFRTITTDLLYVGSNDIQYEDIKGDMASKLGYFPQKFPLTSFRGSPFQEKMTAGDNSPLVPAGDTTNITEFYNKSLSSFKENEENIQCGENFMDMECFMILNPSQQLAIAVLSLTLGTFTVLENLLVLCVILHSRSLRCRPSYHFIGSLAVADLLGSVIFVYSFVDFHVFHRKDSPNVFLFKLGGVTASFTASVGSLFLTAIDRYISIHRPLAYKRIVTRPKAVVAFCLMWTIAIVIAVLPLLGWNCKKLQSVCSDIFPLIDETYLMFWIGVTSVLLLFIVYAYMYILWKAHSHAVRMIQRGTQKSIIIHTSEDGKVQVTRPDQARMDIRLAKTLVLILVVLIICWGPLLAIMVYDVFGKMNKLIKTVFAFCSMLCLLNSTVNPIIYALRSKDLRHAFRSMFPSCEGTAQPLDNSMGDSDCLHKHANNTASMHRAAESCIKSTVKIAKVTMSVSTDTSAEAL

| Structure (SMILES) | Ratio Ki [1] | Ki [2] | Ki [3] |
| --- | --- | --- | --- |
| CC1=CC[C@@H]2[C@@H](C1)c1c(O)cc(-c3ccc(C)cc3)cc1OC2(C)C | 1.3 | 0.0955 µM | 0.0718 µM |
| CCCCCc1cc(O)c2c(c1)OC(C)(C)[C@@H]1CC=C(C)C[C@@H]21 | 1.2 | – | – |
| CC1=CC[C@@H]2[C@@H](C1)c1c(O)cc(C3(C#N)CCCCC3)cc1OC2(C)C | 2.1 | 0.00826 µM | 0.00386 µM |
| C=C(C)[C@@H]1CCC(C)=C[C@H]1c1c(O)cc(-c2ccc(C)cc2)cc1O | 1.7 | 0.638 µM | 0.374 µM |
| C=C(C)[C@@H]1CCC(C)=C[C@H]1c1c(O)cc(C2(C#N)CCCC2)cc1O | 2.4 | 0.255 µM | 0.105 µM |
| CCCc1ccc(-c2cc(O)c3c(c2)OC(C)(C)[C@@H]2CC=C(C)C[C@@H]32)cc1 | 0.5 | 0.0578 µM | 0.108 µM |
| CCCCCC#Cc1cc(O)c2c(c1)OC(C)(C)[C@@H]1CC=C(C)C[C@@H]21 | 0.2 | – | – |
| CC1=CC[C@@H]2[C@@H](C1)c1c(O)cc(-c3cccc4ccccc34)cc1OC2(C)C | 1.2 | 0.0117 µM | 0.00939 µM |
| CCc1ccc(-c2cc(O)c3c(c2)OC(C)(C)[C@@H]2CC=C(C)C[C@@H]32)cc1 | 2.3 | 0.119 µM | 0.0517 µM |
| CC1=CC[C@@H]2[C@@H](C1)c1c(O)cc(C34CC5CC(CC(C5)C3)C4)cc1OC2(C)C | 0.1 | – | – |
| CC1=CC[C@@H]2[C@@H](C1)c1c(O)cc(C3(C#N)CCCC3)cc1OC2(C)C | 1.1 | 0.0279 µM | 0.0252 µM |
| C=C(C)[C@@H]1CCC(C)=C[C@H]1c1c(O)cc(-c2cccc3ccccc23)cc1O | 3.4 | 0.754 µM | 0.222 µM |
| C=C(C)[C@@H]1CCC(C)=C[C@H]1c1c(O)cc(C2(C#N)CCCCC2)cc1O | 2.9 | 0.319 µM | 0.111 µM |
